Calls of active or inactive are those of the source. How the calls were made is not given here.
System: CCRIS mutagenicity, Ames/micronucleus/aberration tests
Test: CCRIS mutagenicity studies

Measured: mutagenic call

O=C(O)c1ccccc1
inactive: Test System: AMES SALMONELLA TYPHIMURIUM, Strain/Indicator: TA97, Metabolic Activation: HAMSTER, LIVER, S-9, AROCLOR 1254 (10 OR 30%), Method: PREINCUBATION inactive; negative | Test System: AMES SALMONELLA TYPHIMURIUM, Strain/Indicator: TA97, Metabolic Activation: NONE, Method: PREINCUBATION inactive; negative | Test System: AMES SALMONELLA TYPHIMURIUM, Strain/Indicator: TA97, Metabolic Activation: RAT, LIVER, S-9, AROCLOR 1254, Method: PREINCUBATION inactive; negative | Test System: AMES SALMONELLA TYPHIMURIUM, Strain/Indicator: TA97, Metabolic Activation: RAT,LIVER, S-9, AROCLOR 1254 (10 OR 30%), Method: PREINCUBATION inactive; negative | Test System: AMES SALMONELLA TYPHIMURIUM, Strain/Indicator: TA97A, Metabolic Activation: NONE, Method: PREINCUBATION inactive; negative | Test System: AMES SALMONELLA TYPHIMURIUM, Strain/Indicator: TA97A, Metabolic Activation: RAT, LIVER, S-9, AROCLOR 1254, Method: PREINCUBATION inactive; negative | Test System: AMES SALMONELLA TYPHIMURIUM, Strain/Indicator: TA98, Metabolic Activation: GUINEA PIG, LIVER, S-9, PCB, Method: PREINCUBATION inactive; negative | Test System: AMES SALMONELLA TYPHIMURIUM, Strain/Indicator: TA98, Metabolic Activation: HAMSTER, LIVER, S-9, AROCLOR 1254 (10 OR 30%), Method: PREINCUBATION inactive; negative | Test System: AMES SALMONELLA TYPHIMURIUM, Strain/Indicator: TA98, Metabolic Activation: HAMSTER, LIVER, S-9, PCB, Method: PREINCUBATION inactive; negative | Test System: AMES SALMONELLA TYPHIMURIUM, Strain/Indicator: TA98, Metabolic Activation: MOUSE, LIVER, S-9, PCB, Method: PREINCUBATION inactive; negative | Test System: AMES SALMONELLA TYPHIMURIUM, Strain/Indicator: TA98, Metabolic Activation: NONE, Method: PREINCUBATION inactive; negative | Test System: AMES SALMONELLA TYPHIMURIUM, Strain/Indicator: TA98, Metabolic Activation: NONE, Method: STANDARD PLATE inactive; negative | Test System: AMES SALMONELLA TYPHIMURIUM, Strain/Indicator: TA98, Metabolic Activation: RAT, LIVER, S-9, AROCLOR 1254 (10%), Method: PREINCUBATION inactive; negative | Test System: AMES SALMONELLA TYPHIMURIUM, Strain/Indicator: TA98, Metabolic Activation: RAT, LIVER, S-9, AROCLOR 1254 (30%), Method: PREINCUBATION inactive; negative | Test System: AMES SALMONELLA TYPHIMURIUM, Strain/Indicator: TA98, Metabolic Activation: RAT, LIVER, S-9, AROCLOR 1254, Method: STANDARD PLATE inactive; negative | Test System: AMES SALMONELLA TYPHIMURIUM, Strain/Indicator: TA98, Metabolic Activation: RAT, LIVER, S-9, PCB, Method: PREINCUBATION inactive; negative | Test System: AMES SALMONELLA TYPHIMURIUM, Strain/Indicator: TA100, Metabolic Activation: GUINEA PIG, LIVER, S-9, PCB, Method: PREINCUBATION inactive; negative | Test System: AMES SALMONELLA TYPHIMURIUM, Strain/Indicator: TA100, Metabolic Activation: HAMSTER, LIVER, S-9, AROCLOR 1254 (10 OR 30%), Method: PREINCUBATION inactive; negative | Test System: AMES SALMONELLA TYPHIMURIUM, Strain/Indicator: TA100, Metabolic Activation: HAMSTER, LIVER, S-9, PCB, Method: PREINCUBATION inactive; negative | Test System: AMES SALMONELLA TYPHIMURIUM, Strain/Indicator: TA100, Metabolic Activation: MOUSE, LIVER, S-9, PCB, Method: PREINCUBATION inactive; negative | Test System: AMES SALMONELLA TYPHIMURIUM, Strain/Indicator: TA100, Metabolic Activation: NONE, Method: PREINCUBATION inactive; negative | Test System: AMES SALMONELLA TYPHIMURIUM, Strain/Indicator: TA100, Metabolic Activation: NONE, Method: STANDARD PLATE inactive; negative | Test System: AMES SALMONELLA TYPHIMURIUM, Strain/Indicator: TA100, Metabolic Activation: RAT, LIVER, S-9, AROCLOR 1254 (10 OR 30%), Method: PREINCUBATION inactive; negative | Test System: AMES SALMONELLA TYPHIMURIUM, Strain/Indicator: TA100, Metabolic Activation: RAT, LIVER, S-9, AROCLOR 1254, Method: STANDARD PLATE inactive; negative | Test System: AMES SALMONELLA TYPHIMURIUM, Strain/Indicator: TA100, Metabolic Activation: RAT, LIVER, S-9, PCB, Method: PREINCUBATION inactive; negative | Test System: AMES SALMONELLA TYPHIMURIUM, Strain/Indicator: TA102, Metabolic Activation: NONE, Method: PREINCUBATION inactive; negative | Test System: AMES SALMONELLA TYPHIMURIUM, Strain/Indicator: TA102, Metabolic Activation: RAT, LIVER, S-9, AROCLOR 1254, Method: PREINCUBATION inactive; negative | Test System: AMES SALMONELLA TYPHIMURIUM, Strain/Indicator: TA1535, Metabolic Activation: HAMSTER, LIVER, S-9, AROCLOR 1254 (10 OR 30%), Method: PREINCUBATION inactive; negative | Test System: AMES SALMONELLA TYPHIMURIUM, Strain/Indicator: TA1535, Metabolic Activation: NONE, Method: PREINCUBATION inactive; negative | Test System: AMES SALMONELLA TYPHIMURIUM, Strain/Indicator: TA1535, Metabolic Activation: NONE, Method: STANDARD PLATE inactive; negative | Test System: AMES SALMONELLA TYPHIMURIUM, Strain/Indicator: TA1535, Metabolic Activation: RAT, LIVER, S-9, AROCLOR 1254 (10%), Method: PREINCUBATION inactive; negative | Test System: AMES SALMONELLA TYPHIMURIUM, Strain/Indicator: TA1535, Metabolic Activation: RAT, LIVER, S-9, AROCLOR 1254 (30%), Method: PREINCUBATION inactive; negative | Test System: AMES SALMONELLA TYPHIMURIUM, Strain/Indicator: TA1535, Metabolic Activation: RAT, LIVER, S-9, AROCLOR 1254, Method: STANDARD PLATE inactive; negative | Test System: AMES SALMONELLA TYPHIMURIUM, Strain/Indicator: TA1537, Metabolic Activation: HAMSTER, LIVER, S-9, AROCLOR 1254 (10 OR 30%), Method: PREINCUBATION inactive; negative | Test System: AMES SALMONELLA TYPHIMURIUM, Strain/Indicator: TA1537, Metabolic Activation: NONE, Method: PREINCUBATION inactive; negative | Test System: AMES SALMONELLA TYPHIMURIUM, Strain/Indicator: TA1537, Metabolic Activation: NONE, Method: STANDARD PLATE inactive; negative | Test System: AMES SALMONELLA TYPHIMURIUM, Strain/Indicator: TA1537, Metabolic Activation: RAT, LIVER, S-9, AROCLOR 1254 (10%), Method: PREINCUBATION inactive; negative | Test System: AMES SALMONELLA TYPHIMURIUM, Strain/Indicator: TA1537, Metabolic Activation: RAT, LIVER, S-9, AROCLOR 1254 (30%), Method: PREINCUBATION inactive; negative | Test System: AMES SALMONELLA TYPHIMURIUM, Strain/Indicator: TA1537, Metabolic Activation: RAT, LIVER, S-9, AROCLOR 1254, Method: STANDARD PLATE inactive; negative | Test System: AMES SALMONELLA TYPHIMURIUM, Strain/Indicator: TA1538, Metabolic Activation: NONE, Method: STANDARD PLATE inactive; negative | Test System: AMES SALMONELLA TYPHIMURIUM, Strain/Indicator: TA1538, Metabolic Activation: RAT, LIVER, S-9, AROCLOR 1254, Method: STANDARD PLATE inactive; negative | Test System: Ames Salmonella typhimurium, Strain/Indicator: TA98, Metabolic Activation: None, Method: Direct plate incorporation inactive; negative | Test System: Ames Salmonella typhimurium, Strain/Indicator: TA98, Metabolic Activation: Rat, liver, S-9, Aroclor 1254, Method: Direct plate incorporation inactive; negative | Test System: Ames Salmonella typhimurium, Strain/Indicator: TA100, Metabolic Activation: None, Method: Direct plate incorporation inactive; negative | Test System: Ames Salmonella typhimurium, Strain/Indicator: TA100, Metabolic Activation: Rat, liver, S-9, Aroclor 1254, Method: Direct plate incorporation inactive; negative | Test System: E. COLI, Strain/Indicator: WP2, Metabolic Activation: NONE, Method: STANDARD PLATE inactive; negative | Test System: E. COLI, Strain/Indicator: WP2, Metabolic Activation: RAT, LIVER, S-9, AROCLOR 1254, Method: STANDARD PLATE inactive; negative

C=CC(O)CCCCC (centres undefined)
inactive: Test System: CHINESE HAMSTER V-79, Strain/Indicator: V-79 (HPRT)/6-THIOGUANINE, Metabolic Activation: NONE, Method: STANDARD PLATE inactive; negative | Test System: CHINESE HAMSTER V-79, Strain/Indicator: V-79 (HPRT)/6-THIOGUANINE, Metabolic Activation: RAT LIVER S-9, Method: STANDARD PLATE inactive; negative
